Experimental findings from patent US11186598B2, “Radioactive phospholipid metal chelates for cancer imaging and therapy” (Wisconsin Alumni Research Foundation, priority 2016, dated 2021) are described below.

The series relates to flank U87 tumors. The series can be described thus: MRI comparison of Gd-DO3A-404 and DOTAREM in mice with flank U87 tumors (Example 5). The settings on record: as compared to Gd-DO3A-404. It counts as in vivo, mouse. The text has this:
To verify that uptake and retention was due to targeting of the “404” moiety, we directly compared the uptake of Gd-DO3A-404 with that of DOTA-chelated Gd^3+ (DOTAREM®) in an identical tumor model (mice with flank U87 tumors) and imaging scenario, using the same number of moles of each.
We the quantified the tumor to muscle ratio and compare it to baseline scans.

Turning to `CNC[C@H](O)[C@@H](O)[C@H](O)[C@H](O)CO.O=C([O-])CN1CCN(CC(=O)[O-])CCN(CC(=O)O)CCN(CC(=O)[O-])CC1.[Gd+3]` [DOTAREM®], the “tumor to muscle ratio compared to baseline scans (uptake)” value was “less striking, and significant only at a couple of early time points”.
